Legend:
[1] = tested on: mouse models for Wernicke-Korsakoff syndrome; details: 500 mg thiamine 3×/day; both models (thiamine-deficient diet, with or without pyrithiamine); cited from earlier work
WKS mouse models = assay: Body weight and disease onset of WKS mouse model (0 ppm thiamine and pyrithiamine injections) in normoxia versus hypoxia; assay type: in vivo, mice
Description: FIG. 3 depicts the body weight of Wernicke-Korsakoff (WKS) Animal Model (0 ppm thiamine and pyrithiamine injections) in normoxia versus hypoxia using the methods described herein.
Hypoxia and moderate hyperoxia exposure were tested in these mouse models of WK syndrome. Six groups of mice for each different oxygen exposure will be used—(no disease, moderate disease, extreme disease)×(with or without thiamine treatment starting day 10 of the disease model). […] This sample size should be sufficient to detect a 30% increase in survival with 80% power. Disease progression in these different conditions will be carefully monitored. Daily body weights from the beginning of treatment will be taken. Additionally, behavior was monitored on a weekly basis using rotarod tests, open field experiments and the Y-maze memory test. For 3 mice per group, T2-weighted MRI scans was performed once per week. This will allow the monitoring of the disease progression and reversal. For a separate set of 3 mice per group, mice were sacked, and neuropathology performed, staining for neuronal cell loss (using NeuN) or neuroinflammatory signatures (using antibodies against GFAP) similar to that performed in Jain et. al.
FIG. 3 depicts the results of WKS mouse models being treated at 21% O2 (normoxia) and 11% O2 (hypoxia) for a span of 20 days. […] Hypoxia began on Day 3 of the experiment.

[2] = tested on: mice with thiamine-deficiency; assay: Symptoms caused by thiamine deficiency (blood lactate, grip strength, body temperature) under different oxygen tensions; assay type: in vivo
Source text: FIGS. 6A-6E depict the results of lowering FiO2 on the symptoms caused by thiamine deficiency. Blood lactate measured in mice housed under different oxygen tensions 21 and 35 days after the diets started. […] Muscle strength assessed by grip strength of mice administered with 17 ppm or 0 ppm thiamine for 21 days. Muscle strength is compromised in mice with thiamine-deficiency under 55% and 21% oxygen (FIG. 6C). […] Student's t-test * p<0.05, ** p<0.01, […]. While the present invention has been described with reference to the specific embodiments thereof, it should be understood by those skilled in the art that various changes may be made and equivalents may be substituted without departing from the true spirit and scope of the invention. In addition, many modifications may be made to adapt a particular situation, material, composition of matter, process, process step or steps, to the objective, spirit and scope of the present invention. All such modifications are intended to be within the scope of the claims appended hereto.

[3] = tested on: mice on a thiamine-deficient diet

| Structure (SMILES) | disease progression in thiamine-deficiency models [1] | disease onset (physiological signs of WKS) (WKS mouse models; 11% O2 (hypoxia) begun on Day 3, span of 20 days, versus 21% O2 (normoxia)) | significant drop of body-weight at Day 14 (WKS mouse models; 11% O2 (hypoxia), body-weight at 21% O2 dropped significantly at Day 14) | body temperature ([2]; 11% O2, thiamine-deficient diet for 43 days, mice under normoxic air exhibit hypothermia) | muscle strength assessed by grip strength ([2]; 55% oxygen, 0 ppm thiamine for 21 days) | blood lactate ([2]; 55% oxygen, day 21 and day 35 after the diets started, severe disease state) | onset of weight loss ([3]; 8% O2 (extreme hypoxia)) | survival at 60 days after start of thiamine-deficient diet ([3]; 8% O2 (extreme hypoxia)) | survival time ([3]; 8% O2 (extreme hypoxia)) | extension of survival time ([3]; 11% O2, versus 21% O2 (median survival time 37 days)) | rate of body weight loss ([3]; 11% O2, versus 21% O2 (weight loss began at 21 days)) | disease progression ([3]; 55% O2) |
| --- | --- | --- | --- | --- | --- | --- | --- | --- | --- | --- | --- | --- |
| Cc1ncc(C[n+]2csc(CCO)c2C)c(N)n1 [thiamine] | can be reversed |  |  |  |  |  |  |  |  |  |  |  |
| O=O [O2, oxygen] |  | prevented disease onset | did not | normal body temperatures | compromised | lactic acidosis | further delayed the onset of weight loss | some mice were still alive at 60 days | extended the survival time | approximately 13 days | lost body weight at a slower rate | exacerbated the disease progression |

From patent publication US12156877B1, “Methods of treating conditions related to a thiamine deficiency, a thiamine-dependent enzyme, or an associated cofactor” (The Regents of the University of California, priority 2019, dated 2024)
